Source: US10781181B2, “N-((het) arylmethyl)-heteroaryl-carboxamides compounds as plasma kallikrein inhibitors” (Kalvista Pharmaceuticals Limited, priority 2014, dated 2020)
Read-outs that look alike come from different tables or passages of the source.

Legend:
Type in all cases: biochemical
[1] = biological target: Human plasma kallikrein (Homo sapiens (Human), UniProt P03952); test: Determination of the IC50 for plasma kallikrein; details: read-out: IC50 (human PKal)
Procedure: Determination of the IC50 for Plasma Kallikrein
(§1) Human plasma kallikrein (Protogen) was incubated at 25° C. with the fluorogenic substrate H-DPro-Phe-Arg-AFC and various concentrations of the test compound. Residual enzyme activity (initial rate of reaction) was determined by measuring the change in […] at 410 nm and the IC50 value for the test compound was determined.

[2] = biological target: Human KLK1 (Homo sapiens (Human), UniProt P06870); test: Determination of the IC50 for KLK1; details: human KLK1, 25° C., substrate H-DVal-Leu-Arg-AFC
Procedure: Determination of the IC50 for KLK1
as §1, with “KLK1 (Callbiochem)” for “plasma kallikrein (Protogen)”, “H-DVal-Leu-Arg-AFC” for “H-DPro-Phe-Arg-AFC”

[3] = biological target: Human FXIa (Homo sapiens (Human), UniProt P03951); test: Determination of the % inhibition for FXIa; details: for inhibition at 40 µM: read-out: % Inhibition @ 40 μM (human FXIa)
Procedure: Determination of the % Inhibition for FXIa
Human FXIa (Enzyme Research Laboratories) was incubated at 25° C. with the fluorogenic substrate Z-Gly-Pro-Arg-AFC and 40 μM of the test compound. Residual enzyme activity (initial rate of reaction) was determined by measuring the change in […].

[4] = 40 μM of the test compound, human FXIa, 25° C.

Human plasma kallikrein, sequence (P03952 391-638): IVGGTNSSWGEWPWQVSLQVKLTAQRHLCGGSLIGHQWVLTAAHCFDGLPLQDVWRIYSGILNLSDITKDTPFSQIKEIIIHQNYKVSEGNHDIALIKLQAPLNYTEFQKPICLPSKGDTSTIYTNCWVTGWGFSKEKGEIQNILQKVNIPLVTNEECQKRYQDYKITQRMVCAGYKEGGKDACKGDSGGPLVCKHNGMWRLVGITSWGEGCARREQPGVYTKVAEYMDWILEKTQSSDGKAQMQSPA
Human plasma kallikrein, sequence (P03952 20-390 partner): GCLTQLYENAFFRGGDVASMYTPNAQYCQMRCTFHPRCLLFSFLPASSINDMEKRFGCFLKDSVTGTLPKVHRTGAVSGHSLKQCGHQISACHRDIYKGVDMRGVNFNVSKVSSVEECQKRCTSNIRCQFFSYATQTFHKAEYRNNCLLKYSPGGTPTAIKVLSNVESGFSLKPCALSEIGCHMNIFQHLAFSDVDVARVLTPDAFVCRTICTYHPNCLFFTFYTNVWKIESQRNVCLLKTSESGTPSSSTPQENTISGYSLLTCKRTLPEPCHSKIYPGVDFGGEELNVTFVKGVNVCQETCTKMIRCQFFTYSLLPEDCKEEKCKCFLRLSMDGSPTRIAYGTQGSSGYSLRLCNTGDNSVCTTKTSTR
Human KLK1, sequence (P06870 25-262): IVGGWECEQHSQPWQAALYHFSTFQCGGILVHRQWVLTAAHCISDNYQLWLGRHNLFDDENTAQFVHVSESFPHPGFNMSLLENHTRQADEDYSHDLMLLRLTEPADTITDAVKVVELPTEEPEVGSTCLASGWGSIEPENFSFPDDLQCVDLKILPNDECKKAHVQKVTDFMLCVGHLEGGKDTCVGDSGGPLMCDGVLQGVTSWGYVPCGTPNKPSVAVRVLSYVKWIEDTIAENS
Human FXIa, sequence (P03951 388-625 limits assumed): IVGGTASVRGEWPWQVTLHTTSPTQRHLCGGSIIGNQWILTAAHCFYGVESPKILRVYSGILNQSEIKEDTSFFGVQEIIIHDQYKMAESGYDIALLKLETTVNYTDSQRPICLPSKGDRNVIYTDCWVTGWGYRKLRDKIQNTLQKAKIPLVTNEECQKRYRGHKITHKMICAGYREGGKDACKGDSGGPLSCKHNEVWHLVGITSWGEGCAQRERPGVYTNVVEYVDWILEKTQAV
Human FXIa, sequence (P03951 19-387 partner limits assumed): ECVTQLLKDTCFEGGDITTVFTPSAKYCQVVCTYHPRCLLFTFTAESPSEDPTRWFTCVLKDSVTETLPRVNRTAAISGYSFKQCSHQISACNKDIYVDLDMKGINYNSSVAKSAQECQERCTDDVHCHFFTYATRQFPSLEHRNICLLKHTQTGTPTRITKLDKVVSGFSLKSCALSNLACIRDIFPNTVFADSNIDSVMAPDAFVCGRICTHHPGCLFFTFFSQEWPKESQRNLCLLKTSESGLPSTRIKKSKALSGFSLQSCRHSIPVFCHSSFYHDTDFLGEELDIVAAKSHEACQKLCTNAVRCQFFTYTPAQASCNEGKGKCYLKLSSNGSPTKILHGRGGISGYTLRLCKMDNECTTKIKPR

Nc1nn(Cc2ccc(Cn3ccccc3=O)cc2)cc1C(=O)NCCNc1cc(Cl)ccn1 [Example 47, 3-amino-N-{2-[(4-chloropyridin-2-yl)amino]ethyl}-1-({4-[(2-oxopyridin-1-yl)methyl]phenyl}methyl)pyrazole-4-carboxamide]
IC50 [1]: 0.0301 µM | IC50 [2]: > 40 µM | inhibition at 40 µM [3, 4]: 32%

Cc1cc(C(=O)NCCOc2cccc(Cl)c2)c(C)n1Cc1csc(-c2ccccc2)n1 [Example 48, N-[2-(3-chlorophenoxy)ethyl]-2,5-dimethyl-1-[(2-phenyl-1,3-thiazol-4-yl)methyl]pyrrole-3-carboxamide]
IC50 [1]: 6.62 µM | IC50 [2]: > 10 µM | % Inhibition @ 40 μM (human FXIa) [3, 4]: 3%

Nc1nn(Cc2ccc(N3CCCC3)nc2)cc1C(=O)NCCOc1cccc(Cl)c1 [Example 49, 3-amino-N-[2-(3-chlorophenoxy)ethyl]-1-{[6-(pyrrolidin-1-yl)pyridin-3-yl]methyl}pyrazole-4-carboxamide]
IC50 [1]: 0.847 µM | IC50 [2]: > 40 µM | inhibition at 40 µM [3, 4]: 0%

Nc1nn(Cc2ccnc(N3CCCC3)c2)cc1C(=O)NCCOc1cccc(Cl)c1 [Example 50, 3-amino-N-[2-(3-chlorophenoxy)ethyl]-1-{[2-(pyrrolidin-1-yl)pyridin-4-yl]methyl}pyrazole-4-carboxamide]
IC50 [1]: 0.326 µM | IC50 [2]: > 40 µM | inhibition at 40 µM [3, 4]: 59%

Nc1nn(Cc2ccc(C(=O)N3CCCC3)cc2)cc1C(=O)NCCOc1cccc(Cl)c1 [Example 51, 3-amino-N-[2-(3-chlorophenoxy)ethyl]-1-({4-[(pyrrolidin-1-yl)carbonyl]phenyl}methyl)pyrazole-4-carboxamide]
IC50 [1]: 0.427 µM | IC50 [2]: > 40 µM | inhibition at 40 µM [3, 4]: 51%

Nc1nn(Cc2ccc(-n3ccccc3=O)cc2)cc1C(=O)NCCOc1cccc(Cl)c1 [Example 52, 3-amino-N-[2-(3-chlorophenoxy)ethyl]-1-{[4-(2-oxopyridin-1-yl)phenyl]methyl}pyrazole-4-carboxamide]
IC50 [1]: 0.335 µM | IC50 [2]: > 40 µM | inhibition at 40 µM [3, 4]: 0%

Nc1nn(Cc2cccc(N3CCCC3)n2)cc1C(=O)NCCOc1cccc(Cl)c1 [Example 53, 3-amino-N-[2-(3-chlorophenoxy)ethyl]-1-{[6-(pyrrolidin-1-yl)pyridin-2-yl]methyl}pyrazole-4-carboxamide]
IC50 [1]: 4.73 µM | IC50 [2]: > 40 µM | inhibition at 40 µM [3, 4]: 0%

Cc1ccc2cc(Cn3cc(C(=O)NCCOc4cccc(Cl)c4)c(N)n3)ccc2n1 [Example 54, 3-amino-N-[2-(3-chlorophenoxy)ethyl]-1-[(2-methylquinolin-6-yl)methyl]pyrazole-4-carboxamide]
IC50 [1]: 0.245 µM | IC50 [2]: > 40 µM | inhibition at 40 µM [3, 4]: 67%

Nc1nn(Cc2ccc(Br)cc2)cc1C(=O)NCCOc1cccc(Cl)c1 [Example 55, 3-amino-1-[(4-bromophenyl)methyl]-N-[2-(3-chlorophenoxy)ethyl]pyrazole-4-carboxamide]
IC50 [1]: 6.41 µM | IC50 [2]: > 40 µM | inhibition at 40 µM [3]: 80%

Nc1nn(Cc2cccc(Br)c2)cc1C(=O)NCCOc1cccc(Cl)c1 [Example 56, 3-amino-1-[(3-bromophenyl)methyl]-N-[2-(3-chlorophenoxy)ethyl]pyrazole-4-carboxamide]
IC50 [1]: 8.49 µM | IC50 [2]: > 40 µM | inhibition at 40 µM [3]: 0%

COC(=O)c1ccc(Cn2cc(C(=O)NCCOc3cccc(Cl)c3)c(N)n2)cc1 [Example 58, methyl 4-[(3-amino-4-{[2-(3-chlorophenoxy)ethyl]carbamoyl}pyrazol-1-yl)methyl]benzoate]
IC50 [1]: 5.42 µM | IC50 [2]: > 40 µM | inhibition at 40 µM [3, 4]: 1%

CNC(=O)c1ccc(Cn2cc(C(=O)NCCOc3cccc(Cl)c3)c(N)n2)cc1 [Example 61, 3-amino-N-[2-(3-chlorophenoxy)ethyl]-1-{[4-(methylcarbamoyl)phenyl]methyl}pyrazole-4-carboxamide]
IC50 [1]: 7.25 µM | IC50 [2]: > 40 µM | inhibition at 40 µM [3, 4]: 0%

CCOC(=O)c1cccc(Cn2cc(C(=O)NCCOc3cccc(Cl)c3)c(N)n2)c1 [Example 62, ethyl 3-[(3-amino-4-{[2-(3-chlorophenoxy)ethyl]carbamoyl}pyrazol-1-yl)methyl]benzoate]
IC50 [1]: 7.15 µM | IC50 [2]: > 40 µM | inhibition at 40 µM [3, 4]: 4%

Nc1nn(Cc2ccnc(-n3cccn3)c2)cc1C(=O)NCCOc1cccc(Cl)c1 [Example 66, 3-amino-N-[2-(3-chlorophenoxy)ethyl]-1-{[2-(pyrazol-1-yl)pyridin-4-yl]methyl}pyrazole-4-carboxamide]
IC50 [1]: 4.92 µM | IC50 [2]: > 40 µM | inhibition at 40 µM [3, 4]: 0%

CNC(=O)CNc1cc(Cn2cc(C(=O)NCCOc3cccc(Cl)c3)c(N)n2)ccn1 [Example 68, 3-amino-N-[2-(3-chlorophenoxy)ethyl]-1-[(2-{[(methylcarbamoyl)methyl]amino}pyridin-4-yl)methyl]pyrazole-4-carboxamide]
IC50 [1]: > 10 µM | IC50 [2]: > 40 µM | inhibition at 40 µM [3, 4]: 0%

Nc1nn(Cc2ccc(C(=O)O)cc2)cc1C(=O)NCCOc1cccc(Cl)c1 [Example 69, 4-[(3-amino-4-{[2-(3-chlorophenoxy)ethyl]carbamoyl}pyrazol-1-yl)methyl]benzoic acid]
IC50 [1]: > 10 µM | IC50 [2]: > 40 µM | inhibition at 40 µM [3]: 0%

Nc1nn(Cc2cccc(C(=O)N3CCCC3)c2)cc1C(=O)NCCOc1cccc(Cl)c1 [Example 70, 3-amino-N-[2-(3-chlorophenoxy)ethyl]-1-({3-[(pyrrolidin-1-yl)carbonyl]phenyl}methyl)pyrazole-4-carboxamide]
IC50 [1]: > 10 µM | IC50 [2]: > 40 µM | inhibition at 40 µM [3, 4]: 6%

Nc1nn(Cc2ccc(Oc3ccccc3)cc2)cc1C(=O)NCCOc1cccc(Cl)c1 [Example 71, 3-amino-N-[2-(3-chlorophenoxy)ethyl]-1-[(4-phenoxyphenyl)methyl]pyrazole-4-carboxamide]
IC50 [1]: 2.07 µM | IC50 [2]: > 40 µM | inhibition at 40 µM [3, 4]: 0%

Nc1nn(Cc2cccc(-c3ccccc3)n2)cc1C(=O)NCCOc1cccc(Cl)c1 [Example 72, 3-amino-N-[2-(3-chlorophenoxy)ethyl]-1-[(6-phenylpyridin-2-yl)methyl]pyrazole-4-carboxamide]
IC50 [1]: 5.94 µM | IC50 [2]: > 40 µM | inhibition at 40 µM [3, 4]: 26%

COc1cc(Cn2cc(C(=O)NCCOc3cccc(Cl)c3)c(N)n2)ccn1 [Example 73, 3-amino-N-[2-(3-chlorophenoxy)ethyl]-1-[(2-methoxypyridin-4-yl)methyl]pyrazole-4-carboxamide]
IC50 [1]: > 10 µM | IC50 [2]: > 40 µM | inhibition at 40 µM [3, 4]: 0%

CNC(=O)CN(C)c1cc(Cn2cc(C(=O)NCCOc3cccc(Cl)c3)c(N)n2)ccn1 [Example 74, 3-amino-N-[2-(3-chlorophenoxy)ethyl]-1-[(2-{methyl[(methylcarbamoyl)methyl]amino}pyridin-4-yl)methyl]pyrazole-4-carboxamide]
IC50 [1]: > 10 µM | IC50 [2]: > 40 µM | inhibition at 40 µM [3, 4]: 4%

Nc1nn(Cc2ccc(COc3ncccn3)cc2)cc1C(=O)NCCOc1cccc(Cl)c1 [Example 75, 3-amino-N-[2-(3-chlorophenoxy)ethyl]-1-({4-[(pyrimidin-2-yloxy)methyl]phenyl}methyl)pyrazole-4-carboxamide]
IC50 [1]: 3.67 µM | IC50 [2]: > 40 µM | inhibition at 40 µM [3, 4]: 0%

Nc1nn(Cc2ccc(CN3CCOCC3=O)cc2)cc1C(=O)NCCOc1cccc(Cl)c1 [Example 76, 3-amino-N-[2-(3-chlorophenoxy)ethyl]-1-({4-[(3-oxomorpholin-4-yl)methyl]phenyl}methyl)pyrazole-4-carboxamide]
IC50 [1]: 0.227 µM | IC50 [2]: > 40 µM | inhibition at 40 µM [3, 4]: 0%

Nc1nn(Cc2ccc(CN3CCCCC3=O)cc2)cc1C(=O)NCCOc1cccc(Cl)c1 [Example 77, 3-amino-N-[2-(3-chlorophenoxy)ethyl]-1-({4-[(2-oxopiperidin-1-yl)methyl]phenyl}methyl)pyrazole-4-carboxamide]
IC50 [1]: 0.112 µM | IC50 [2]: > 40 µM | inhibition at 40 µM [3, 4]: 0%

CNC(=O)CNc1ccc(Cn2cc(C(=O)NCCOc3cccc(Cl)c3)c(N)n2)cn1 [Example 78, 3-amino-N-[2-(3-chlorophenoxy)ethyl]-1-[(6-{[(methylcarbamoyl)methyl]amino}pyridin-3-yl)methyl]pyrazole-4-carboxamide]
IC50 [1]: 6.93 µM | IC50 [2]: > 40 µM | inhibition at 40 µM [3, 4]: 4%

Nc1nn(Cc2ccc(-c3ncccn3)cc2)cc1C(=O)NCCOc1cccc(Cl)c1 [Example 79, 3-amino-N-[2-(3-chlorophenoxy)ethyl]-1-{[4-(pyrimidin-2-yl)phenyl]methyl}pyrazole-4-carboxamide]
IC50 [1]: 5.87 µM | IC50 [2]: > 40 µM | inhibition at 40 µM [3, 4]: 9%

Nc1nn(Cc2nc(-c3ccccc3)no2)cc1C(=O)NCCOc1cccc(Cl)c1 [Example 80, 3-amino-N-[2-(3-chlorophenoxy)ethyl]-1-[(3-phenyl-1,2,4-oxadiazol-5-yl)methyl]pyrazole-4-carboxamide]
IC50 [1]: 6.33 µM | IC50 [2]: > 40 µM | inhibition at 40 µM [3, 4]: 0%
